# Data published in patent US20220409620A1, “REDUCING IMMUNOGENICITY TO PEGLOTICASE” (Horizon Pharma Rheumatology LLC, priority 2016, published 2022).
# Test system: adult patients with uncontrolled gout
# Assay: Serum uric acid (sUA) levels and sUA responder rate, open-label study of pegloticase with MTX (MIRROR OL)
# Assay type: in vivo, human
# Conditions: for Serum Uric Acid Change from Methotrexate Baseline, Mean (SD) / Serum Uric Acid Change from Methotrexate Baseline, Median / Serum Uric Acid, Observed, Mean (SD) / Serum Uric Acid, Observed, Median / sUA <6 mg/dL, n (%): mITT
# Protocol: The primary objective is to estimate the response rate during Month 6 (Weeks 20, 22, and 24), as measured by the sustained normalization of serum uric acid (SUA) to <6 mg/dL for at least 80% of the time during Month 6 in subjects receiving KXX with MTX.
# The primary efficacy outcome endpoint is the sustained normalization of SUA to <6 mg/dL for at least 80% of the time during month 6 (weeks 20, 22, and 24) in subjects receiving KXX with MTX. […] Participants who achieve this endpoint were classified as “responders.” Serum uric acid (SUA) responders may also be defined as participants achieving and maintaining SUA <6 mg/dL for at least 80% of the time during Month 6 (Weeks 20, 22, and 24).
# Blood samples may be collected prior to each pegloticase infusion for measurement of SUA levels using the Beckman Coulter AU System Uric Acid procedure. Participants were declared “non-responders” if there were SUA measures >6 mg/dL at 2 consecutive study visits beginning with the week 2 visit. […] This assumption and subsequent discontinuation of pegloticase was consistent with the protocol of large phase III randomized controlled trials and the product label. A formal stopping rule was 2 occasions of SUA levels of greater than 6 mg/dL.
# Clinical Chemistry—Blood samples were collected prior to each pegloticase infusion for measurement of SUA levels (primary efficacy parameter) using the Beckman Coulter AU System Uric Acid procedure. In this procedure uric acid is converted to hydrogen peroxide. Hydrogen peroxide reacts with reagent to produce a chromophore which is read bichromatically at 660/800 nm. The amount of dye formed is proportional to the uric acid concentration in the sample.
# Serum samples for measurement of SUA levels were collected at the Screening Visit, the Week −4 Visit (prior to the first dose of MTX), and the Week −2 Visit during the MTX Run-in Period; within 48 hours prior to each pegloticase infusion and after the end of each pegloticase infusion prior to discharge from the site during the Pegloticase+IMM Period; at the non-infusion Week 52/End of Study/Early Termination Visits and at the Post Treatment 3 and 6 Month Follow-up Visits. Additional serum samples for SUA levels were collected at optional non-infusion (Frequent Sampling) Visits at Weeks 1 and 7. […] Subjects with SUA level >6 mg/dL at 2 consecutive visits beginning at Week 2 visit discontinued treatment, completed the End of Pegloticase Infusion Visit procedures within 2 weeks and continued the subject visits according to the protocol (without treatment).
# Efficacy analyses were performed using the modified intention-to-treat (mITT) population, defined as all enrolled subjects who received ≥1 dose of pegloticase. The proportion of Month 6 responders was summarized, along with a 95% confidence interval for the proportion. The proportion of Month 3 and overall (Months 3 and 6 combined) responders was analyzed similarly.
# A subject was declared a non-responder if the subject had SUA level >6 mg/dL at 2 consecutive study visits beginning with the Week 2 Visit. In addition, a subject who withdraws from study treatment for any reason after the first dose of pegloticase in the KXX+MTX Period and prior to Month 6 (for the primary endpoint) or Month 3 (for the secondary endpoint) was considered a non-responder if SUA values were not collected at the planned time points.
# Patients were administered oral MTX (15 mg/week) and folate (1 mg/day) 4 weeks prior to the first pegloticase infusion (Day 1) and throughout the pegloticase treatment period. Blood was drawn prior to each infusion to measure sUA level, monitor clinical parameters, and examine for ADA development. All patients followed typical IR prophylaxis protocols (fexofenadine one day before and the morning of each infusion and acetaminophen and IV corticosteroid the morning of each infusion).
# [1] = Day 1 - Pre-Infusion (after MTX Run-in)
structure (smiles),measurement,setting,value
"CN(Cc1cnc2nc(N)nc(N)c2n1)c1ccc(C(=O)N[C@@H](CCC(=O)O)C(=O)O)cc1 [MTX, methotrexate]",mean sUA,"Day 1, after 4-week MTX run-in, before first pegloticase infusion, 14 patients",9.2 ± 2.5 mg/dL
same,"Serum Uric Acid Change from Methotrexate Baseline, Mean (SD)",[1],0.25 (1.283) mg/dL
same,"Serum Uric Acid Change from Methotrexate Baseline, Median",[1],-0.25 mg/dL
same,"Serum Uric Acid, Observed, Mean (SD)",[1],9.16 (2.486) mg/dL
same,"Serum Uric Acid, Observed, Median",[1],9.00 mg/dL
same,"sUA <6 mg/dL, n (%)",[1],1 (7.1%)
same,"Serum Uric Acid Change from Methotrexate Baseline, Mean (SD)",Week - 2 (MTX Run-in),0.54 (0.839) mg/dL
same,"Serum Uric Acid Change from Methotrexate Baseline, Median",Week - 2 (MTX Run-in),0.50 mg/dL
same,"Serum Uric Acid, Observed, Mean (SD)",Week - 2 (MTX Run-in),9.45 (2.211) mg/dL
same,"Serum Uric Acid, Observed, Median",Week - 2 (MTX Run-in),9.30 mg/dL
same,"sUA <6 mg/dL, n (%)",Week - 2 (MTX Run-in),1 (7.1%)
